Several values for one entry are separate records, joined by “and”; a condition that tells them apart may be missing. Identical values can stand only once. Records with an inconclusive call do not appear.
Test system: BDF1 mice, colon carcinoma 38 sc, T/C %
Test: NCI In Vivo Anticancer Drug Screen. Data for tumor model Colon Carcinoma 38 (subcutaneous) in B6D2F1 (BDF1) mice
Summary of the method: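 Transplantable tumor in mice; compound-treated vs vehicle-dosed controls. Measured survival or tumor size; value = T ÷ C.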

[1] = endpoint: median tumor weight (est.), dose: 25.0 mg/kg/injection, schedule: Q07DX002 (ip), vehicle: saline, higher = larger tumour
[2] = endpoint: median tumor weight (est.), dose: 50.0 mg/kg/injection, schedule: Q07DX002 (ip), vehicle: saline, higher = larger tumour
[3] = endpoint: median tumor weight (est.), dose: 400.0 mg/kg/injection, schedule: Q07DX002 (ip), vehicle: saline with Tween-80, higher = larger tumour
[4] = endpoint: median tumor weight (est.), dose: 12.5 mg/kg/injection, schedule: Q07DX002 (ip), vehicle: saline, higher = larger tumour
[5] = endpoint: median tumor weight (est.), dose: 200.0 mg/kg/injection, schedule: Q07DX002 (ip), vehicle: saline, higher = larger tumour
[6] = endpoint: median tumor weight (est.), dose: 400.0 mg/kg/injection, schedule: Q07DX002 (ip), vehicle: saline, higher = larger tumour
[7] = endpoint: median tumor weight (est.), dose: 100.0 mg/kg/injection, schedule: Q07DX002 (ip), vehicle: saline, higher = larger tumour
[8] = endpoint: median tumor weight (est.), dose: 100.0 mg/kg/injection, schedule: Q07DX002 (ip), vehicle: Klucel (hydroxypropylcellulose) (HPC), higher = larger tumour
[9] = endpoint: median tumor weight (est.), dose: 200.0 mg/kg/injection, schedule: Q07DX002 (ip), vehicle: Klucel (hydroxypropylcellulose) (HPC), higher = larger tumour
[10] = endpoint: median tumor weight (est.), dose: 400.0 mg/kg/injection, schedule: Q07DX002 (ip), vehicle: Klucel (hydroxypropylcellulose) (HPC), higher = larger tumour
[11] = endpoint: median tumor weight (est.), dose: 50.0 mg/kg/injection, schedule: Q07DX002 (ip), vehicle: saline with Tween-80, higher = larger tumour
[12] = endpoint: median tumor weight (est.), dose: 100.0 mg/kg/injection, schedule: Q07DX002 (ip), vehicle: saline with Tween-80, higher = larger tumour
[13] = endpoint: median tumor weight (est.), dose: 200.0 mg/kg/injection, schedule: Q07DX002 (ip), vehicle: saline with Tween-80, higher = larger tumour

CN(C)S(=O)(=O)CCNC(=O)N(CCCl)N=O
T/C (endpoint: median tumor weight (est.), dose: 5.4 mg/kg/injection, schedule: Q07DX002 (oral), vehicle: saline, higher = larger tumour): 108 % of control
T/C (endpoint: median tumor weight (est.), dose: 7.5 mg/kg/injection, schedule: Q07DX002 (oral), vehicle: saline with Tween-80, higher = larger tumour): 65 % of control
T/C (endpoint: median tumor weight (est.), dose: 9.0 mg/kg/injection, schedule: Q07DX002 (oral), vehicle: saline, higher = larger tumour): 106 % of control
T/C (endpoint: median tumor weight (est.), dose: 15.0 mg/kg/injection, schedule: Q07DX002 (oral), vehicle: saline, higher = larger tumour): 94 % of control
T/C (endpoint: median tumor weight (est.), dose: 25.0 mg/kg/injection, schedule: Q07DX002 (oral), vehicle: saline, higher = larger tumour): 18 % of control

CCCCNC(C)[C@]1(O)Cc2c(O)c3c(c(O)c2[C@@H](OC2CC(N)C(O)C(C)O2)C1)C(=O)c1c(OC)cccc1C3=O (some centres undefined)
T/C (endpoint: median survival time, dose: 16.0 mg/kg/injection, schedule: Q07DX002 (sc), vehicle: saline, higher = longer survival): 113 % of control
T/C (endpoint: median survival time, dose: 26.0 mg/kg/injection, schedule: Q07DX002 (sc), vehicle: saline, higher = longer survival): 151 % of control
T/C (endpoint: median tumor weight (est.), dose: 3.38 mg/kg/injection, schedule: Q07DX002 (ip), vehicle: saline, higher = larger tumour): 89 % of control
T/C (endpoint: median tumor weight (est.), dose: 6.75 mg/kg/injection, schedule: Q07DX002 (ip), vehicle: saline, higher = larger tumour): 88 % of control
T/C (endpoint: median tumor weight (est.), dose: 13.5 mg/kg/injection, schedule: Q07DX002 (ip), vehicle: saline, higher = larger tumour): 81 % of control

CC(=O)OCC1OC(n2ccc(N)nc2=O)C(OC(C)=O)C1OC(C)=O (centres undefined)
T/C [1]: 113 % of control and 92 % of control
T/C [2]: 97 % of control and 104 % of control
T/C (endpoint: median tumor weight (est.), dose: 800.0 mg/kg/injection, schedule: Q07DX002 (ip), vehicle: saline, higher = larger tumour): 30 % of control and 36 % of control

COC(=O)Nc1ccc(Cc2ccc(NC(=O)OC)cc2)cc1
T/C (endpoint: median tumor weight (est.), dose: 6.25 mg/kg/injection, schedule: Q07DX002 (ip), vehicle: saline with Tween-80, higher = larger tumour): 60 % of control
T/C [3]: 87 % of control and 102 % of control

Cc1cc2c(c3oc(C4(C)OC4C4OC4C)cc(=O)c13)C(=O)c1c(O)c(C3CC(C)(N(C)C)C(O)C(C)O3)cc(C3CC(N(C)C)C(O)C(C)O3)c1C2=O (centres undefined)
T/C (endpoint: median tumor weight (est.), dose: 3.75 micrograms/kg/injection, schedule: Q07DX002 (ip), vehicle: Klucel (hydroxypropylcellulose) (HPC), higher = larger tumour): 62 % of control
T/C (endpoint: median tumor weight (est.), dose: 7.5 micrograms/kg/injection, schedule: Q07DX002 (ip), vehicle: Klucel (hydroxypropylcellulose) (HPC), higher = larger tumour): 90 % of control
T/C (endpoint: median tumor weight (est.), dose: 15.0 micrograms/kg/injection, schedule: Q07DX002 (ip), vehicle: Klucel (hydroxypropylcellulose) (HPC), higher = larger tumour): 99 % of control
T/C (endpoint: median tumor weight (est.), dose: 30.0 micrograms/kg/injection, schedule: Q07DX002 (ip), vehicle: Klucel (hydroxypropylcellulose) (HPC), higher = larger tumour): 57 % of control

COc1ccc(OC)c(Cc2cnc3nc(N)nc(N)c3c2C)c1
T/C (endpoint: median tumor weight (est.), dose: 12.5 mg/kg/injection, schedule: Q07DX002 (ip), vehicle: water, higher = larger tumour): 62 % of control
T/C (endpoint: median tumor weight (est.), dose: 25.0 mg/kg/injection, schedule: Q07DX002 (ip), vehicle: water, higher = larger tumour): 96 % of control
T/C (endpoint: median tumor weight (est.), dose: 50.0 mg/kg/injection, schedule: Q07DX002 (ip), vehicle: water, higher = larger tumour): 67 % of control and 82 % of control
T/C (endpoint: median tumor weight (est.), dose: 100.0 mg/kg/injection, schedule: Q07DX002 (ip), vehicle: water, higher = larger tumour): 93 % of control and 100 % of control
T/C (endpoint: median tumor weight (est.), dose: 200.0 mg/kg/injection, schedule: Q07DX002 (ip), vehicle: water, higher = larger tumour): 32 % of control

Cc1cc(O)c2c(c1O)C(=O)c1cccc(O)c1C2=O
T/C (endpoint: median tumor weight (est.), dose: 0.18 mg/kg/injection, schedule: Q07DX002 (ip), vehicle: Klucel (hydroxypropylcellulose) (HPC), higher = larger tumour): 86 % of control
T/C (endpoint: median tumor weight (est.), dose: 0.37 mg/kg/injection, schedule: Q07DX002 (ip), vehicle: Klucel (hydroxypropylcellulose) (HPC), higher = larger tumour): 60 % of control
T/C (endpoint: median tumor weight (est.), dose: 0.75 mg/kg/injection, schedule: Q07DX002 (ip), vehicle: Klucel (hydroxypropylcellulose) (HPC), higher = larger tumour): 59 % of control
T/C (endpoint: median tumor weight (est.), dose: 1.5 mg/kg/injection, schedule: Q07DX002 (ip), vehicle: Klucel (hydroxypropylcellulose) (HPC), higher = larger tumour): 110 % of control

CC1=CC(=NN=c2cc(C)n([O-])c(C)c2)C=C(C)[N+]1=O
T/C [4]: 82 % of control
T/C [1]: 108 % of control
T/C (endpoint: median tumor weight (est.), dose: 25.0 mg/kg/injection, schedule: Q07DX002 (ip), vehicle: suspension in saline, higher = larger tumour): 123 % of control
T/C [2]: 73 % of control
T/C (endpoint: median tumor weight (est.), dose: 100.0 mg/kg/injection, schedule: Q07DX002 (ip), vehicle: suspension in saline, higher = larger tumour): 97 % of control
T/C [5]: 99 % of control
T/C (endpoint: median tumor weight (est.), dose: 200.0 mg/kg/injection, schedule: Q07DX002 (ip), vehicle: suspension in saline, higher = larger tumour): 121 % of control
T/C [6]: 90 % of control
T/C (endpoint: median tumor weight (est.), dose: 400.0 mg/kg/injection, schedule: Q07DX002 (ip), vehicle: suspension in saline, higher = larger tumour): 98 % of control

OCCCN1CCCCC1CO (centres undefined)
T/C [1]: 91 % of control
T/C [2]: 110 % of control
T/C [7]: 108 % of control
T/C [5]: 99 % of control
T/C [6]: 98 % of control

Clc1ccc(C(c2ccccc2Cl)C(Cl)Cl)cc1 (centres undefined)
T/C (endpoint: median tumor weight (est.), dose: 25.0 mg/kg/injection, schedule: Q07DX003 (ip), vehicle: saline with Tween-80, higher = larger tumour): 39 % of control
T/C (endpoint: median tumor weight (est.), dose: 50.0 mg/kg/injection, schedule: Q07DX003 (ip), vehicle: saline with Tween-80, higher = larger tumour): 59 % of control
T/C (endpoint: median tumor weight (est.), dose: 100.0 mg/kg/injection, schedule: Q07DX003 (ip), vehicle: saline with Tween-80, higher = larger tumour): 80 % of control
T/C (endpoint: median tumor weight (est.), dose: 200.0 mg/kg/injection, schedule: Q07DX003 (ip), vehicle: saline with Tween-80, higher = larger tumour): 63 % of control
T/C (endpoint: median tumor weight (est.), dose: 400.0 mg/kg/injection, schedule: Q07DX003 (ip), vehicle: saline with Tween-80, higher = larger tumour): 95 % of control

OCCN1CCN(CC/C=C2/c3ccccc3Sc3ccc(Cl)cc32)CC1
T/C (endpoint: median tumor weight (est.), dose: 3.12 mg/kg/injection, schedule: Q07DX002 (ip), vehicle: saline, higher = larger tumour): 83 % of control
T/C (endpoint: median tumor weight (est.), dose: 6.25 mg/kg/injection, schedule: Q07DX002 (ip), vehicle: saline, higher = larger tumour): 39 % of control
T/C [4]: 112 % of control
T/C [1]: 67 % of control
T/C [2]: 110 % of control
T/C [7]: 99 % of control

C=C1C(=O)OC2CC1CCC1(C)OC1CCC(C)=CCCC2(C)O (centres undefined)
T/C (endpoint: median tumor weight (est.), dose: 3.75 mg/kg/injection, schedule: Q07DX002 (ip), vehicle: Klucel (hydroxypropylcellulose) (HPC), higher = larger tumour): 155 % of control
T/C (endpoint: median tumor weight (est.), dose: 7.5 mg/kg/injection, schedule: Q07DX002 (ip), vehicle: Klucel (hydroxypropylcellulose) (HPC), higher = larger tumour): 155 % of control
T/C (endpoint: median tumor weight (est.), dose: 30.0 mg/kg/injection, schedule: Q07DX002 (ip), vehicle: Klucel (hydroxypropylcellulose) (HPC), higher = larger tumour): 99 % of control
T/C (endpoint: median tumor weight (est.), dose: 60.0 mg/kg/injection, schedule: Q07DX002 (ip), vehicle: Klucel (hydroxypropylcellulose) (HPC), higher = larger tumour): 123 % of control

CCN(CC)CCNC(=O)Cc1cccc2c(=O)cc(-c3ccccc3)oc12
T/C [8]: 101 % of control
T/C [9]: 96 % of control
T/C [10]: 68 % of control

Cc1ccc(S(=O)(=O)NC(=S)S)cc1
T/C (endpoint: median tumor weight (est.), dose: 12.5 mg/kg/injection, schedule: Q07DX002 (ip), vehicle: saline with Tween-80, higher = larger tumour): 108 % of control
T/C (endpoint: median tumor weight (est.), dose: 25.0 mg/kg/injection, schedule: Q07DX002 (ip), vehicle: saline with Tween-80, higher = larger tumour): 54 % of control
T/C [11]: 116 % of control
T/C [12]: 100 % of control
T/C [13]: 60 % of control

O=c1oc2c(O)c(O)cc3c(=O)oc4c(O)c(O)cc1c4c23
T/C (endpoint: median tumor weight (est.), dose: 12.5 mg/kg/injection, schedule: Q07DX002 (ip), vehicle: Klucel (hydroxypropylcellulose) (HPC), higher = larger tumour): 195 % of control
T/C (endpoint: median tumor weight (est.), dose: 25.0 mg/kg/injection, schedule: Q07DX002 (ip), vehicle: Klucel (hydroxypropylcellulose) (HPC), higher = larger tumour): 200 % of control
T/C (endpoint: median tumor weight (est.), dose: 50.0 mg/kg/injection, schedule: Q07DX002 (ip), vehicle: Klucel (hydroxypropylcellulose) (HPC), higher = larger tumour): 181 % of control
T/C [10]: 155 % of control

Nc1cc2c(c[n+](CCCCCCCC[n+]3cc4c5ccccc5c(N)cc4c4ccccc43)c3ccccc23)c2ccccc12
T/C (endpoint: median tumor weight (est.), dose: 7.5 mg/kg/injection, schedule: Q07DX002 (ip), vehicle: water, higher = larger tumour): 108 % of control
T/C (endpoint: median tumor weight (est.), dose: 15.0 mg/kg/injection, schedule: Q07DX002 (ip), vehicle: water, higher = larger tumour): 82 % of control
T/C (endpoint: median tumor weight (est.), dose: 30.0 mg/kg/injection, schedule: Q07DX002 (ip), vehicle: water, higher = larger tumour): 94 % of control
T/C (endpoint: median tumor weight (est.), dose: 60.0 mg/kg/injection, schedule: Q07DX002 (ip), vehicle: water, higher = larger tumour): 53 % of control

CCC(=O)Sc1ccccc1C(=O)Nc1ccc(Cl)cc1
T/C [11]: 120 % of control
T/C [12]: 104 % of control
T/C [13]: 114 % of control
T/C [3]: 59 % of control

CN(C)CCCOC(=O)Cc1cccc2c(=O)cc(-c3ccccc3)oc12
T/C [8]: 107 % of control
T/C [9]: 81 % of control

Reference: PubChem BioAssay AID212 (DTP/NCI, 2004)
